Results published in patent US20090281111A1 (Fabre-Kramer Pharmaceuticals, Inc., priority 2008, published 2009).

Assays:
5-HT7 receptor = 5-HT7 receptor (Homo sapiens, UniProt P34969); conditions: compared with 3-OH gepirone; cited from earlier work
[1] = cited from earlier work; for half-life: in vivo
5-HT2A receptor = 5-HT2A receptor (Homo sapiens, UniProt P28223); conditions: compared with 3-OH gepirone; cited from earlier work
Alpha 2C receptor = biological target: T1, Alpha 2C receptor (Homo sapiens, UniProt P18825); conditions: cited from earlier work
T1 sequence (P18825 1-462): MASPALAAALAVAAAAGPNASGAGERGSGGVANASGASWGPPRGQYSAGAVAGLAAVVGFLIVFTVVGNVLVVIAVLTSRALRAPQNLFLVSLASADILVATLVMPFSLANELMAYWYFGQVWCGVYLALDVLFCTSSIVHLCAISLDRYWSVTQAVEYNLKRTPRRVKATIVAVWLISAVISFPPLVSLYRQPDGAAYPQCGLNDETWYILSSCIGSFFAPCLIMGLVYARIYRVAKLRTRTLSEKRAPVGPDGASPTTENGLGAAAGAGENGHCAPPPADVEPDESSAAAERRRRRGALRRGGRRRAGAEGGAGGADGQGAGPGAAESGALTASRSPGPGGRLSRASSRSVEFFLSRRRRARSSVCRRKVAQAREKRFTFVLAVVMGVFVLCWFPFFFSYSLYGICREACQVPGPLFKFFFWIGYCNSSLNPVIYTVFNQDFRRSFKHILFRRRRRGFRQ

[2] = 3-OH gepirone concentrations in plasma after administration of gepirone; format: in vivo; conditions: human subjects administered a dose of gepirone, FIG. 2
Protocol: “Time (H)” represents time after administration.
Each sample corresponds to a 0.5 ml plasma sample, extracted with 6 ml of (2:1) (v/v) hexane:chloroform for 1 hour. After separation by centrifuge, the organic layer is transferred to a 10 ml conical tube and 90 ul of 1% formic acid is added. The tube is vortexed for 10 minutes and centrifuged for 5 minutes. About 80 ul of the formic acid layer is transferred into injection vials for HPLC/MS analysis.

5-HT1A receptor = biological target: T2, 5-HT1A receptor (Homo sapiens, UniProt P08908); conditions: cited from earlier work
T2 sequence (P08908 1-422): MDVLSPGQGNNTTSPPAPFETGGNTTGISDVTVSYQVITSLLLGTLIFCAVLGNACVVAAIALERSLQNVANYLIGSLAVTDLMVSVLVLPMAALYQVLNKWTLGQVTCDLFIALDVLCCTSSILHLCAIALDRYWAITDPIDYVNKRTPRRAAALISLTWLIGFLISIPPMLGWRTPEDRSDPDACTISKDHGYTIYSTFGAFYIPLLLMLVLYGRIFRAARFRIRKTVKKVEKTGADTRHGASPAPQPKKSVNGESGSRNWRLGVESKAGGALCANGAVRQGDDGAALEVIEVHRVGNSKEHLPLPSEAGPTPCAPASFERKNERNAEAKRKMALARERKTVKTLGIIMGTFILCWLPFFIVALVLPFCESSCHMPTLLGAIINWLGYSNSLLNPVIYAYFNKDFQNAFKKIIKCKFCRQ

dopaminergic receptors = conditions: cited from earlier work
[3] = test system: alpha-adrenergic receptors; conditions: Alpha 2A, Alpha 2B, Alpha 2C tested; cited from earlier work

Sequence of 5-HT7 receptor (P34969 whole entry): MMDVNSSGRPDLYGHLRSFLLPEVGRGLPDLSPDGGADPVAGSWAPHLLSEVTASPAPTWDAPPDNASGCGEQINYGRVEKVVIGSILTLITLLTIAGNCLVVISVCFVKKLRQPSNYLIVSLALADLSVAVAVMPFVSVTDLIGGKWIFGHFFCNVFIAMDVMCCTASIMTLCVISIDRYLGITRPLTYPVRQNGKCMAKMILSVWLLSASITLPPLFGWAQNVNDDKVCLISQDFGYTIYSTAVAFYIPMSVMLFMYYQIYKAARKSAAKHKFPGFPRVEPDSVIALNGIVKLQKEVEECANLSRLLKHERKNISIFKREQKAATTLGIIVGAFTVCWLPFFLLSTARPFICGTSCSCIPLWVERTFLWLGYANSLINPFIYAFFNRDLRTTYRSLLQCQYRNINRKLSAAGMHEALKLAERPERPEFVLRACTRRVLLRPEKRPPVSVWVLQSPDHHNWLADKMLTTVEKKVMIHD
Sequence of 5-HT2A receptor (P28223 whole entry): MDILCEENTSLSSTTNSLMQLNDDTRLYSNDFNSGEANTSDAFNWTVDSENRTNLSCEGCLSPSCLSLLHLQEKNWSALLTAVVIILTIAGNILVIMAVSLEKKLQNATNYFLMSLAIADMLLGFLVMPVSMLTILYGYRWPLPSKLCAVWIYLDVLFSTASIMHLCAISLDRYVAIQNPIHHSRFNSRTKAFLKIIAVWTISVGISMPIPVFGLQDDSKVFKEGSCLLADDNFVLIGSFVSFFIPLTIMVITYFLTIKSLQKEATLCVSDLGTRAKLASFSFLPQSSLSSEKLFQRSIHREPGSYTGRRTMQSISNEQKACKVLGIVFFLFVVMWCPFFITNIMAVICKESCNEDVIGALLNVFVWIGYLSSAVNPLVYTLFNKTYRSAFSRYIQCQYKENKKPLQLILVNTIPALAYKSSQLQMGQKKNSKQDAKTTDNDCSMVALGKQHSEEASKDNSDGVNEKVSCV

Structure (SMILES): CC1(C)CC(=O)N(CCCCN2CCN(c3ncccn3)CC2)C(=O)C1 [gepirone, 4-dimethyl-1-[4-[4-(2-pyrimidinyl)-1-piperazinyl]butyl]-2,6-piperidinedione]
- interaction with the 5-HT7 receptor (5-HT7 receptor): much more specifically and at lower concentrations than does 3-OH gepirone
- bioavailability ([1]; delivered orally): 14-18%
- half-life [1]: very short
- interaction with the 5-HT2A receptor (5-HT2A receptor): much more specifically and at lower concentrations than does 3-OH gepirone

Structure (SMILES): O=C1CC2(CCCC2)CC(=O)N1CCCCN1CCN(c2ncccn2)CC1 [buspirone]
- interaction with the 5-HT7 receptor (5-HT7 receptor): much more specifically and at lower concentrations than does 3-OH gepirone
- half-life [1]: very short

Structure (SMILES): CC1(C)CC(=O)N(CCCCN2CCN(c3ncccn3)CC2)C(=O)C1O (centres unmarked) [3-OH gepirone, 4,4,-dimethyl-3-hydroxy-1-[4-[4-(2-pyrimidinyl)-1-piperazinyl]butyl]-2,6-piperidinedione]
- binding at the Alpha 2C receptor (Alpha 2C receptor): weak binding
- plasma levels of 3-OH gepirone over time [2]: available quickly and persists in the plasma for extended periods of time
- selectivity among the serotonergic receptor subtypes (5-HT1A receptor): highly selective for the 5-HT1A receptor
- dopaminergic binding (dopaminergic receptors): insignificant dopaminergic binding
- affinity at alpha-adrenergic receptors [3]: did not display significant affinity
